Data taken from article PMC12053792 (Journal of Peptide Science, 2025).
Entries after “also recorded” stand apart in the source; their conditions may differ.

Tests used:
TLR2 = conditions: Pam2Cys adjuvanting moiety; ref [19]; cited from earlier work
Description: Due to the small size of many CTAs (several under 100 amino acids in length), it is possible to produce the whole CTA synthetically via solid‐phase peptide synthesis (SPPS), coupled with native chemical ligation if required. […] An additional benefit of using palmitoyl functionality is the ability of the fatty acid chains to be incorporated into nanoparticles via sel ...

CD8+ cells = conditions: models vaccinated against NY‐ESO‐1; ref [34], [35], [36]; cited from earlier work
Description: (§1) Two CTA epitopes; NY‐ESO‐1_157‐165 and BAGE4_18–39 were employed as the antigenic components in our studies. […] BAGE4_18–39 represents the entire BAGE4 CTA minus the signal peptide; this antigen is expressed in 22% of melanomas and 30% of infiltrating bladder carcinomas; to our knowledge, it has not been evaluated in vivo. Inclusion of the ...

HLA‐A2 = conditions: ref [34], [35], [36]; cited from earlier work
Description: as §1

BALB/c mice = test: In vivo toxicity in healthy BALB/c mice; conditions: antigen alone / components administered separately
anti‐BAGE4 antibody = test: Competitive ELISA, antibody recognition of BAGE4 antigen; type: binding, rabbit; conditions: 11 antigen concentrations between 1000 and 0.98 ng/mL, anti‐BAGE4 antibody SAB4301150 (1:250), 1 h, BAGE4-coated 384‐well plate, PBST with 0.05% Tween 20 as negative control, HRP/TMB, absorbance 450 nm
Experimental: Antibody–antigen complexes were then added to 384‐well plates which were precoated with 10 ng/mL of antigen. The secondary antibody, specific to the primary and conjugated to horseradish peroxidase (HRP) enzyme (produced in rabbit), was added, followed by TMB for colour development.
The antigen was diluted to 100 ng/ml in carbonate-bicarbonate
buffer, then 60 μL of the antigen dilution was pipetted into the wells of Maxisorp 384 well plate.
The plate was diluted as required (23 dilutions were prepared) and incubated at 4 °C under
foil overnight. The coating solution was removed and the plate washed three times by filling
the wells with 200 μL PBST. The solutions or washes were removed by flicking the plate over
a sink, then patting the plate dry with a paper towel.
Remaining protein-binding sites in the coated wells were blocked by adding 40 μL blocking
buffer (3% whey, 0.05% NaN3, 0.1% EDTA in PBS) to each well. The plates were covered
with foil and incubated for 2 h at rt or overnight at 4 °C. Plates were washed three times by
filling the wells with 200 μL PBS.
Incubation with primary and secondary antibody
In an Abgene 96 well plate, 8 dilutions of primary antibody (anti-BAGE4 produced in rabbit;
Sigma Aldrich SAB4301150, and anti-NY-ESO-1 produced in mouse; Sigma Aldrich N2038) […]
The optical density at 450 nm was recorded. […]

IFNγ‐secreting T‐cells = test: In vivo immunisation, IFNγ ELISpot on splenocytes, BALB/c mice
Experimental: Animal experiments were carried out with ethical approval from University of Nottingham ethical review board and under a Home Office approved project license (PP2706800). Mice were dosed with 10 nmol of material in 50 μL at Days 1, 8 and 15 (n = 3). IFNϒ ELISpot assays on splenocytes were conducted on termination at Day 21. General methods for the ELISpot can be found in the Supporting Information. Preparation of media and buffers and steps performed on Days 1 and 2 post‐termination; the ELISpot assays were performed using a laminar flow cabinet and aseptic techniques to ensure the sterility of media, reagents and plates at stages before development of the ELISpot. Development of the ELISpot on Day 4 posttermination was performed on the laboratory bench.
The response was measured by count of peptide‐specific IFNγ‐secreting T‐cells by ELISpot assay. Since no studies to date have addressed T‐cell responses to BAGE4 in conventional or HLA‐A2 (HHDII/DR1) transgenic mice, conventional mice were initially selected. The H‐2d haplotype (BALB/c) strain was selected for this study as the epitope predictions for peptides that bind to MHC I and II are effective for this strain (IEDB Analysis Resource). Splenocytes from the immunised mice were tested against three predicted epitope peptides from BAGE4_18–39, which should reactivate T‐cell responses in this strain of mice when immunised with BAGE4_18–39 vaccine candidates. Lipopolysaccharide (LPS; 5 μg/mL) was used as the positive control (non‐specific stimulus of the immune system).
In Vivo Evaluation (ELISpot Assay)
Animal experiments were carried out with ethical approval from University of Nottingham ethical review boards and under a Home Office approved project license (PP2706800). HLA-HHDII/DR1 (HLA-A2.1+/+ HLADR1+/+, Pasteur Institute) transgenic mice knocked out for murine MHC-I and II and expressing chimeric HLA-A2 (HHDII) and human HLA-DR1 or Balb/c mice (Charles River) aged 6-12 weeks were used. Mice were vaccinated with 10 ηmol of each immunogen at each timepoint. Doses were delivered subcutaneously (s.c.) in 50 µl volume on days 1, 8 and 15. No anaesthesia was used for injections. Responses were screened on day 21 after euthanasia by cervical dislocation. Preparation of media and buffers and steps performed on days 1 and 2 of the ELISpot assay were performed using a laminar flow cabinet and aseptic techniques to ensure the sterility of media, reagents and plates at stages before development of the ELISpot. Development of the ELISpot on day 4 can be performed on the […]
The following tables summarise the details of the vaccine candidates and vaccination procedure including (dose time points): […]
Table S6. Summary of the injection schedule (including dose concentration and number) for the following vaccine candidates: BAGE418-39 candidate (co-administered with IFA), Cys-BAGE4-MalLNP conjugate, Pam2Cys-SK4-BAGE18-39 (2), and 2-LNP using BALB/c mice. […]
peptide mixed splenocytes
1 with standard 10 nmol SC Day 1,8 & 15 3 Day 21 ELISA on
3 Pam2Cys-SK4- 10 nmol SC Day 1, 8 & 3 Day 1 Experiment
Pam2Cys-SK4- 10 nmol Day 1, 8 & Experiment
Elispot assays were performed using murine IFNγ capture and detection reagents according to the manufacturer’s instructions (Mabtech).
Day 1: Coating of plates with capture antibody
20 μL 35% ethanol was added to each well then discarded. Each plate was then washed 4 times with 200 μL of sterile distilled water per well. […]

## CCCCCCCCCCCCCCCC(=O)OCC(CSCC(N)C(=O)O)OC(=O)CCCCCCCCCCCCCCC (stereo not shown)
TLR2
  Potency relative to (R)‐analogue: hundredfold decrease in potency compared to the (R)‐analogue

## SLLMWITQC [NY‐ESO‐1_157‐165]
CD8+ cells
  Immunogenicity / T‐cell reactivation (in words): spontaneously immunogenic; also recorded: reactivate T‐cell responses (CD8+ cells)
HLA‐A2
  Binding to HLA‐A2 (in words): able to bind to HLA‐A2

## BAGE4_18–39: small (22 amino acid, excluding the signal peptide) underexplored melanoma antigen (RLMKEESPVVSWWLEPEDGTAL; UniProt Q86Y28 18-39, looked up, fragment)
BALB/c mice
  Toxicity of antigen or components administered separately: does not show any toxicity
anti‐BAGE4 antibody
  IC50: 11.4 nM
IFNγ‐secreting T‐cells; BAGE4 peptide + IFA, 10 nmol in 50 μL s.c., days 1, 8, 15, n = 3, day 21, restimulated with BAGE4_18–39, IFNγ ELISpot count
  T‐cell response, median: 511
IFNγ‐secreting T‐cells; BAGE4 peptide + IFA, 10 nmol s.c., days 1, 8, 15, n = 3, restimulated with BAGE4_18–32
  T‐cell response / ANOVA significance (in words): slightly lower responses
IFNγ‐secreting T‐cells; BAGE4 peptide + IFA, 10 nmol s.c., days 1, 8, 15, n = 3, restimulated with BAGE4_18–39
  T‐cell response / ANOVA significance (in words): good responses
IFNγ‐secreting T‐cells; BAGE4 peptide + IFA, 10 nmol s.c., days 1, 8, 15, n = 3, restimulated with BAGE4_22–31
  T‐cell response / ANOVA significance (in words): almost no response; also recorded: no significance
IFNγ‐secreting T‐cells; BALB/c mice, 10 nmol s.c., days 1, 8 and 15, n = 3, IFNγ ELISpot day 21
  Immunogenicity (in words): immunogenic in conventional BALB/c mice
